Assay results from ChEMBL document CHEMBL1201862, “PubChem BioAssay data set” (2004).
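Exposure lasted 48 hours, with cells grown in 96-well plates and compounds tested at five concentrations. Abbreviation: GI50, concentration required for 50% inhibition of growth.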 Active and inactive are the calls of the source. Cut-off read from the data, not from the text of the source: active = GI50 up to about 1.1 µM and inactive = higher.

Legend:
Assay in all cases: growth of human tumour cells (NCI), 48 h
[1] = system: HCT-15
[2] = system: MDA-MB-435
[3] = system: UACC-62
[4] = system: SK-MEL-28
[5] = system: RPMI-8226
[6] = system: A498
[7] = system: LOX IMVI
[8] = system: HL-60
[9] = system: SF-268
[10] = system: RXF 393
[11] = system: MDA-MB-231
[12] = system: HOP-62
[13] = system: OVCAR-3
[14] = system: TK-10
[15] = system: PC-3
[16] = system: SN12C
[17] = system: Malme-3M
[18] = system: Hs-578T
[19] = system: 786-0
[20] = system: SNB-75

| Structure (SMILES) | GI50 [1] [µM] | GI50 [2] | GI50 [3] | GI50 [4] | GI50 [5] | GI50 [6] | GI50 [7] | GI50 [8] | GI50 [9] | GI50 [10] | GI50 [11] | GI50 [12] | GI50 [13] | GI50 [14] | GI50 [15] | GI50 [16] | GI50 [17] | GI50 [18] | GI50 [19] | GI50 [20] |
| --- | --- | --- | --- | --- | --- | --- | --- | --- | --- | --- | --- | --- | --- | --- | --- | --- | --- | --- | --- | --- |
| CCC1=C(C=O)c2cc3[nH]c(cc4nc(c5c6[nH]c(cc1n2)c(C)c6C(=O)C5C(=O)OC)C(CCC(=O)OC)C4C)c(C)c3CC (stereo not drawn) | > 100 | > 100 µM (inactive) | > 100 µM (inactive) | > 100 µM (inactive) | > 100 µM (inactive) | > 100 µM (inactive) | > 100 µM (inactive) | > 100 µM (inactive) | > 100 µM (inactive) | > 100 µM (inactive) | > 100 µM (inactive) | > 100 µM (inactive) | > 100 µM (inactive) | > 100 µM (inactive) | > 100 µM (inactive) | > 100 µM (inactive) | > 100 µM (inactive) | 88.1 µM (inactive) | > 100 µM (inactive) | > 100 µM (inactive) |
| CC(C)(C)OC(=O)C1CCC/C1=N/Nc1ccc([N+](=O)[O-])cc1[N+](=O)[O-] (stereo not drawn) | 39.4 | 21.2 µM (inactive) | 26.9 µM (inactive) | 54.7 µM (inactive) | 32 µM (inactive) | 13 µM (inactive) | 17.7 µM (inactive) | 44.3 µM (inactive) | 41.8 µM (inactive) | 33.2 µM (inactive) | 20 µM (inactive) | 45.6 µM (inactive) | 46.6 µM (inactive) | 43.7 µM (inactive) | 10.3 µM (inactive) | 40.7 µM (inactive) | 65.5 µM (inactive) | 48.2 µM (inactive) | 23 µM (inactive) | 19.1 µM (inactive) |
| CCOC(=O)C(NC(=O)OCc1ccccc1)C(=O)O (stereo not drawn) | > 100 | > 100 µM (inactive) | > 100 µM (inactive) | > 100 µM (inactive) | > 100 µM (inactive) | > 100 µM (inactive) | > 100 µM (inactive) | > 100 µM (inactive) | > 100 µM (inactive) | > 100 µM (inactive) | > 100 µM (inactive) | > 100 µM (inactive) | > 100 µM (inactive) | > 100 µM (inactive) | > 100 µM (inactive) | > 100 µM (inactive) | > 100 µM (inactive) | > 100 µM (inactive) | > 100 µM (inactive) | > 100 µM (inactive) |
| c1ccc2c(NCCCCCCCCNc3c4ccccc4nc4ccccc34)c3ccccc3nc2c1 | 0.528 | 1.04 µM (active) | 0.684 µM (active) |  | 0.0828 µM (active) | 1.26 µM (inactive) | 0.181 µM (active) | 0.125 µM (active) | 0.63 µM (active) | 0.0782 µM (active) | 0.0482 µM (active) | 0.224 µM (active) | 0.37 µM (active) | 1.38 µM (inactive) | 0.0548 µM (active) | 0.356 µM (active) | 1.14 µM (inactive) | 0.478 µM (active) | 0.106 µM (active) | 1.19 µM (inactive) |
| CCn1c(-c2ccccc2)cs/c1=N\C(P(=O)(O)O)P(=O)(O)O | > 100 | > 100 µM (inactive) | > 100 µM (inactive) | > 100 µM (inactive) | > 100 µM (inactive) | > 100 µM (inactive) | > 100 µM (inactive) | > 100 µM (inactive) | > 100 µM (inactive) | > 100 µM (inactive) | > 100 µM (inactive) | > 100 µM (inactive) | > 100 µM (inactive) | > 100 µM (inactive) | > 100 µM (inactive) |  | > 100 µM (inactive) | > 100 µM (inactive) | > 100 µM (inactive) | > 100 µM (inactive) |
